# From US6482810B1, “Antibiotic composition for inhibition of angiogenesis” (priority 1991, dated 2002)
# Read-outs that look alike come from different tables or passages of the source.
# Key:
# [1] = tested on: tumor-induced angiogenesis (VX2 carcinoma) in the rabbit cornea; assay: Rabbit cornea angiogenesis assay with VX2 carcinoma and controlled release polymers; conditions: for factor of decrease of tumor-induced angiogenesis: versus empty polymer
# [2] = tested on: angiogenesis in the cornea; conditions: rabbit, in vivo
# [3] = tested on: angiogenesis in the cornea; assay: Drug-containing polymers implanted alone in the cornea; conditions: polymer without tumor in the cornea
compound,measurement,setting,value
"CC(=O)OCC(=O)[C@@]1(O)CC[C@H]2[C@@H]3CCC4=CC(=O)CC[C@]4(C)[C@H]3C(=O)C[C@@]21C [cortisone, cortisone acetate]",inhibition of tumor angiogenesis (angiogenesis index),"[1]; controlled release from EVAc polymer, 7, 14 and 21 days, P<0.05",significantly inhibited
same,angiogenesis induced by polymer implanted alone,[2],did not induce angiogenesis
CN(C)c1ccc(O)c2c1C[C@H]1C[C@H]3[C@H](N(C)C)C(O)=C(C(N)=O)C(=O)[C@@]3(O)C(O)=C1C2=O [minocycline],factor of decrease of tumor-induced angiogenesis,[1]; 7 days after implantation,4.5
same,factor of decrease of tumor-induced angiogenesis,[1]; 14 days after implantation,4.4
same,factor of decrease of tumor-induced angiogenesis,[1]; 21 days after implantation,2.9
same,angiogenesis induced by polymer implanted alone,[3],did not induce angiogenesis
heparin,angiogenesis induced by polymer implanted alone,[3],promote a mild angiogenic response
